Here are results for 13 molecules from PubChem BioAssay AID296 (DTP/NCI, 2004).

“And” between values parts separate entries of the source, which are not always exact repeats. Identical values can stand only once. Inconclusive results are not listed.

In the assay the test system is MX-1 breast xenograft, nude mice, tumor weight T/C. Kind of assay: NCI In Vivo Anticancer Drug Screen. Data for tumor model Human Mammary Carcinoma MX-1 Xenograft (intrarenal inoculation) in NU/NU Swiss (nude) mice. As to conditions: endpoint: mean tumor weight change, higher = larger tumour. Put shortly: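 Compound dosed to mice with transplantable tumor; vehicle group as control. Endpoint survival or tumour size, reported as T/C.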

Setting [1] is: dose: 25.0 mg/kg/injection, schedule: Q04DX003 (sc), vehicle: saline.
[2] abbreviates: dose: 50.0 mg/kg/injection, schedule: Q04DX003 (sc), vehicle: saline.
[3] abbreviates: dose: 300.0 mg/kg/injection, schedule: Q04DX003 (sc), vehicle: saline with Tween-80.

Consider `CC(=O)O[C@H]1C(=O)[C@@]2(C)[C@H]([C@H](OC(=O)c3ccccc3)[C@]3(O)C[C@H](OC(=O)[C@H](O)[C@@H](NC(=O)c4ccccc4)c4ccccc4)C(C)=C1C3(C)C)[C@]1(OC(C)=O)CO[C@@H]1C[C@@H]2O`, for which the T/C by setting is: (dose: 2.5 mg/kg/injection, schedule: Q01DX010 (sc), vehicle: Klucel (hydroxypropylcellulose) (HPC)) 83 % of control; (dose: 5.0 mg/kg/injection, schedule: Q01DX010 (sc), vehicle: Klucel (hydroxypropylcellulose) (HPC)) 77 % of control; (dose: 10.0 mg/kg/injection, schedule: Q01DX010 (sc), vehicle: Klucel (hydroxypropylcellulose) (HPC)) 46 % of control; (dose: 20.0 mg/kg/injection, schedule: Q01DX010 (sc), vehicle: Klucel (hydroxypropylcellulose) (HPC)) 73 % of control; (dose: 40.0 mg/kg/injection, schedule: Q01DX010 (sc), vehicle: Klucel (hydroxypropylcellulose) (HPC)) 48 % of control; (dose: 80.0 mg/kg/injection, schedule: Q01DX010 (sc), vehicle: Klucel (hydroxypropylcellulose) (HPC)) 36 % of control. For the same molecule, under “dose: 400.0 mg/kg/injection, schedule: Q01DX010 (sc), vehicle: Klucel (hydroxypropylcellulose) (HPC)”, the T/C is 6 % of control.
As to `Cc1ccc(NN=O)nc1`, the T/C runs as follows: (dose: 18.7 mg/kg/injection, schedule: Q04DX003 (ip), vehicle: water) 16 % of control; (dose: 37.5 mg/kg/injection, schedule: Q04DX003 (ip), vehicle: water) 8 % of control.
In the case of `O=c1n(CC2CO2)c(=O)n(CC2CO2)c(=O)n1CC1CO1` (stereo not given), the T/C was 26 % of control under setting [1] and 4 % of control under setting [2].
Take `O=C1CC2(C(=O)N1CN1CCCCC1)c1ccccc1-c1ccccc12`: the T/C reads like this: (dose: 200.0 mg/kg/injection, schedule: Q04DX003 (sc), vehicle: Klucel (hydroxypropylcellulose) (HPC)) 79 % of control; (dose: 400.0 mg/kg/injection, schedule: Q04DX003 (sc), vehicle: Klucel (hydroxypropylcellulose) (HPC)) 71 % of control; (dose: 800.0 mg/kg/injection, schedule: Q04DX003 (sc), vehicle: Klucel (hydroxypropylcellulose) (HPC)) 72 % of control.
As for `C1OCN2CSCC12` (stereo not given), the T/C (dose: 100.0 mg/kg/injection, schedule: Q04DX003 (sc), vehicle: saline with Tween-80) is 94 % of control; the T/C (dose: 200.0 mg/kg/injection, schedule: Q04DX003 (sc), vehicle: saline with Tween-80) was 158 % of control; the T/C (dose: 400.0 mg/kg/injection, schedule: Q04DX003 (sc), vehicle: saline with Tween-80) was 80 % of control.
In the case of `C[C@]12CCC(=O)C=C1CC[C@@H]1[C@@H]2[C@@H](O)C[C@@]2(C)[C@H]1CC[C@]2(O)C(=O)CO`, the T/C is 117 % of control (dose: 75.0 mg/kg/injection, schedule: Q04DX003 (sc), vehicle: Klucel (hydroxypropylcellulose) (HPC)); 45 % of control (dose: 150.0 mg/kg/injection, schedule: Q04DX003 (sc), vehicle: Klucel (hydroxypropylcellulose) (HPC)); 33 % of control (dose: 300.0 mg/kg/injection, schedule: Q04DX003 (sc), vehicle: Klucel (hydroxypropylcellulose) (HPC)); 33 % of control (dose: 600.0 mg/kg/injection, schedule: Q04DX003 (sc), vehicle: Klucel (hydroxypropylcellulose) (HPC)).
`Oc1ccc(SCc2ccc(NCc3ccccc3)cc2)cc1`: the T/C (dose: 25.0 mg/kg/injection, schedule: Q01DX010 (sc), vehicle: saline with Tween-80) is 104 % of control; the T/C (dose: 50.0 mg/kg/injection, schedule: Q01DX010 (sc), vehicle: saline with Tween-80) was 46 % of control; the T/C (dose: 100.0 mg/kg/injection, schedule: Q01DX010 (sc), vehicle: saline with Tween-80) was 92 % of control; the T/C (dose: 200.0 mg/kg/injection, schedule: Q01DX010 (sc), vehicle: saline with Tween-80) was 74 % of control; the T/C (dose: 400.0 mg/kg/injection, schedule: Q01DX010 (sc), vehicle: saline with Tween-80) was 55 % of control; the T/C (dose: 800.0 mg/kg/injection, schedule: Q01DX010 (sc), vehicle: saline with Tween-80) was 94 % of control.
As for `CC1=C(/C=C/C(C)=C/C=C/C(C)=C/C=O)C(C)(C)CCC1`, the T/C (dose: 150.0 mg/kg/injection, schedule: Q04DX003 (sc), vehicle: saline with Tween-80) is 88 % of control; the T/C under setting [3] was 98 % of control; the T/C (dose: 1200.0 mg/kg/injection, schedule: Q04DX003 (sc), vehicle: saline with Tween-80) was 53 % of control.
In the case of `CC(C)CCCCCCCCCCCCC(=O)NCC(=O)NC1C(C)OC(Nc2ncnc3nc[nH]c23)C(O)C1O` (stereo not given), the T/C is 68 % of control (dose: 1.0 mg/kg/injection, schedule: Q01DX010 (sc), vehicle: distilled water + Tween-80); 75 % of control (dose: 2.0 mg/kg/injection, schedule: Q01DX010 (sc), vehicle: distilled water + Tween-80); 55 % of control (dose: 4.0 mg/kg/injection, schedule: Q01DX010 (sc), vehicle: distilled water + Tween-80); 25 % of control (dose: 8.0 mg/kg/injection, schedule: Q01DX010 (sc), vehicle: distilled water + Tween-80).
For `Cc1c(N)nc([C@H](CC(N)=O)NC[C@H](N)C(N)=O)nc1C(=O)N[C@H](C(=O)N[C@H](C)[C@@H](O)[C@H](C)C(=O)N[C@H](C(=O)NCCc1nc(-c2nc(C(=O)NCCC[S+](C)C)cs2)cs1)[C@@H](C)O)C(OC1OC(CO)C(O)C(O)C1OC1OC(CO)C(O)C(OC(N)=O)C1O)c1cnc[nH]1` (stereo not given in full), the T/C reads like this: (dose: 4.0 mg/kg/injection, schedule: Q01DX010 (ip), vehicle: saline) 86 % of control; (dose: 6.25 mg/kg/injection, schedule: Q04DX003 (sc), vehicle: saline) 93 % of control; (dose: 8.0 mg/kg/injection, schedule: Q01DX010 (ip), vehicle: saline) 55 % of control; (dose: 8.0 mg/kg/injection, schedule: Q04DX003 (sc), vehicle: saline) 87 % of control; (dose: 13.3 mg/kg/injection, schedule: Q04DX003 (sc), vehicle: saline) 67 % of control; (dose: 13.33 mg/kg/injection, schedule: Q04DX003 (ip), vehicle: saline) 101 % of control and 120 % of control. For the same molecule, the T/C was 45 % of control (dose: 13.33 mg/kg/injection, schedule: Q04DX003 (sc), vehicle: saline); 49 % of control (dose: 16.0 mg/kg/injection, schedule: Q01DX010 (ip), vehicle: saline); 46 % of control (dose: 16.0 mg/kg/injection, schedule: Q04DX003 (sc), vehicle: saline); 50 % of control under setting [1]; 71 % of control (dose: 26.65 mg/kg/injection, schedule: Q04DX003 (ip), vehicle: saline); 89 % of control (dose: 26.66 mg/kg/injection, schedule: Q04DX003 (ip), vehicle: saline). Moreover, the T/C is 53 % of control (dose: 32.0 mg/kg/injection, schedule: Q01DX010 (ip), vehicle: saline); 15 % of control (dose: 32.0 mg/kg/injection, schedule: Q04DX003 (sc), vehicle: saline); 80 % of control (dose: 37.5 mg/kg/injection, schedule: Q04DX003 (sc), vehicle: saline); 46 % of control under setting [2]; 63 % of control (dose: 53.3 mg/kg/injection, schedule: Q04DX003 (ip), vehicle: saline); 49 % of control (dose: 53.3 mg/kg/injection, schedule: Q04DX003 (sc), vehicle: saline). The T/C was 59 % of control (dose: 53.33 mg/kg/injection, schedule: Q04DX003 (ip), vehicle: saline); 106 % of control (dose: 53.33 mg/kg/injection, schedule: Q04DX003 (sc), vehicle: saline); 30 % of control (dose: 75.0 mg/kg/injection, schedule: Q04DX003 (sc), vehicle: saline); 88 % of control (dose: 106.6 mg/kg/injection, schedule: Q04DX003 (ip), vehicle: saline); 51 % of control (dose: 106.6 mg/kg/injection, schedule: Q04DX003 (sc), vehicle: saline); 64 % of control (dose: 106.66 mg/kg/injection, schedule: Q04DX003 (sc), vehicle: saline). The T/C (dose: 150.0 mg/kg/injection, schedule: Q04DX003 (sc), vehicle: saline) was 17 % of control.
`COc1cc2c3c(cccc3c1)C(=O)N(CCN(C)C)C2=O`: the T/C reads like this: under setting [3], 100 % of control; (dose: 600.0 mg/kg/injection, schedule: Q04DX003 (sc), vehicle: saline with Tween-80) 103 % of control.
Regarding `COc1cccc2c1C(=O)c1c(O)c3c(c(O)c1C2=O)C[C@@](O)(C(=O)CO)C[C@@H]3OC1CC(OC(C)=O)C(OC(C)=O)C(C)O1` (stereo not given in full), the T/C (dose: 6.25 mg/kg/injection, schedule: Q01DX010 (sc), vehicle: distilled water + Tween-80) is 82 % of control and the T/C (dose: 12.5 mg/kg/injection, schedule: Q01DX010 (sc), vehicle: distilled water + Tween-80) was 96 % of control.
With `[I][Hg][CH2]C1OCCOC1[CH2][Hg][I]` (stereo not given), the T/C reads like this: (dose: 1200.0 mg/kg/injection, schedule: Q04DX003 (sc), vehicle: Klucel (hydroxypropylcellulose) (HPC)) 77 % of control; (dose: 2400.0 mg/kg/injection, schedule: Q04DX003 (sc), vehicle: Klucel (hydroxypropylcellulose) (HPC)) 98 % of control.
